The structures appear in SMILES notation.

For the experiment, the system named is MDA-MB-231 cells. In words: Extracellular lactate production inhibition after 4 h, MDA-MB-231. The note with it: Homo sapiens, MDA-MB-231.
As to `COc1ncc(S(=O)(=O)Nc2ccccc2C#Cc2ccc(C(=O)O)cc2)cc1Br` [Compound 48, 4-{2-[2-(5-bromo-6-methoxypyridine-3-sulfonamido)phenyl]ethynyl}benzoic acid], the IC50 was 100 to 1000 nM. With `Cc1cc(C#Cc2ccccc2NS(=O)(=O)c2ccc3ccccc3c2)cnc1C(=O)O` [Compound 49, 3-methyl-5-{2-[2-(naphthalene-2-sulfonamido)phenyl]ethynyl}pyridine-2-carboxylic acid] the figure was 100 to 1000 nM. With `Cc1cc(C(=O)O)ncc1C#Cc1ccccc1NS(=O)(=O)c1ccc2ccccc2c1` [Compound 50, 4-methyl-5-{2-[2-(naphthalene-2-sulfonamido)phenyl]ethynyl}pyridine-2-carboxylic acid] the figure was 1000 to 100000 nM. With `Cc1nc(C(=O)O)ccc1C#Cc1ccccc1NS(=O)(=O)c1ccc2ccccc2c1` [Compound 51, 6-methyl-5-{2-[2-(naphthalene-2-sulfonamido)phenyl]ethynyl}pyridine-2-carboxylic acid] the figure was 1000 to 100000 nM; with `O=C(O)c1ccc(C#Cc2ccccc2NS(=O)(=O)c2cccc3cccnc23)cn1` [Compound 52, 5-{2-[2-(quinoline-8-sulfonamido)phenyl]ethynyl}pyridine-2-carboxylic acid], 100 to 1000 nM; with `Cc1cncc2c(S(=O)(=O)Nc3ccccc3C#Cc3ccc(C(=O)O)cc3)cccc12` [Compound 54, 4-{2-[2-(4-methylisoquinoline-8-sulfonamido)phenyl]ethynyl}benzoic acid], 1000 to 100000 nM. As for `O=C(O)c1ccc(C#Cc2ccccc2NS(=O)(=O)c2ccc3ncccc3c2)cc1` [Compound 55, 4-{2-[2-(quinoline-6-sulfonamido)phenyl]ethynyl}benzoic acid], the IC50 was in the range of 1000 to 100000 nM. With `COc1ccc(S(=O)(=O)Nc2ccccc2C#Cc2ccc(C(=O)O)cc2)cc1C` [Compound 56, 4-{2-[2-(4-methoxy-3-methylbenzenesulfonamido)phenyl]-ethynyl}benzoic acid] the figure was 100 to 1000 nM; with `CCOc1cc(C#Cc2ccccc2NS(=O)(=O)c2ccc3ccccc3c2)ccc1C(=O)O` [Compound 57, 2-ethoxy-4-{2-[2-(naphthalene-2-sulfonamido)phenyl]ethynyl}benzoic acid], 1000 to 100000 nM; with `CCOc1cc(C#Cc2ccccc2NS(=O)(=O)c2ccc(OC)c3ccccc23)ccc1C(=O)O` [Compound 58, 2-ethoxy-4-{2-[2-(4-methoxynaphthalene-1-sulfonamido)phenyl]ethynyl}benzoic acid], 100 to 1000 nM. With `Cc1cc(C#Cc2ccccc2NS(=O)(=O)c2cccc3cccnc23)cnc1C(=O)O` [Compound 59, 3-methyl-5-{2-[2-(quinoline-8-sulfonamido)phenyl]ethynyl}pyridine-2-carboxylic acid] the figure was 100 to 1000 nM. Under `Cc1nc(C(=O)O)ccc1C#Cc1ccccc1NS(=O)(=O)c1cccc2cccnc12` [Compound 60, 6-methyl-5-{2-[2-(quinoline-8-sulfonamido)phenyl]ethynyl}pyridine-2-carboxylic acid] stands 1000 to 100000 nM; under `Cc1cc(C(=O)O)ncc1C#Cc1ccccc1NS(=O)(=O)c1cccc2cccnc12` [Compound 61, 4-methyl-5-{2-[2-(quinoline-8-sulfonamido)phenyl]ethynyl}pyridine-2-carboxylic acid], 100 to 1000 nM.

`COc1cc(C#Cc2ccccc2NS(=O)(=O)c2cccc3ccccc23)ccc1C(=O)O` [Compound 62, 2-methoxy-4-{2-[2-(naphthalene-1-sulfonamido)phenyl]ethynyl}benzoic acid] gave a 50% inhibitory concentration (IC50) of 100 to 1000 nM. With `COc1ccc(S(=O)(=O)Nc2ccccc2C#Cc2cnc(C(=O)O)c(C)c2)c2ccccc12` [Compound 63, 5-{2-[2-(4-methoxynaphthalene-1-sulfonamido)phenyl]ethynyl}-3-methylpyridine-2-carboxylic acid] the figure was 100 to 1000 nM; with `Cc1cccc(C#Cc2ccc(C(=O)O)cc2)c1NS(=O)(=O)c1ccc2ccccc2c1` [Compound 64, 4-{2-[3-methyl-2-(naphthalene-2-sulfonamido)phenyl]ethynyl}benzoic acid], 1000 to 100000 nM. Under `O=C(O)c1ncc(C#Cc2ccccc2NS(=O)(=O)c2ccc3ccccc3c2)cc1F` [Compound 65, 3-fluoro-5-{2-[2-(naphthalene-2-sulfonamido)phenyl]ethynyl}pyridine-2-carboxylic acid] stands 1000 to 100000 nM; under `O=C(O)c1ccc(C#Cc2ccccc2NS(=O)(=O)c2cccc3nccnc23)cc1` [Compound 66, 4-{2-[2-(quinoxaline-5-sulfonamido)phenyl]ethynyl}benzoic acid], 1000 to 100000 nM; under `COc1ccc(S(=O)(=O)Nc2ccccc2C#Cc2ccc(C(=O)O)c(OC)c2)c(C)c1` [Compound 67, 2-methoxy-4-{2-[2-(4-methoxy-2-methylbenzenesulfonamido)phenyl]-ethynyl}benzoic acid], 100 to 1000 nM. With `O=C(O)c1ccc(C#Cc2cc(F)ccc2NS(=O)(=O)c2cccc3ccccc23)cc1` [Compound 68, 4-{2-[5-fluoro-2-(naphthalene-1-sulfonamido)phenyl]ethynyl}benzoic acid] the figure was 100 to 1000 nM. As for `O=C(O)c1ccc(C#Cc2ccccc2NS(=O)(=O)c2cccc3ccccc23)cc1F` [Compound 69, 2-fluoro-4-{2-[2-(naphthalene-1-sulfonamido)phenyl]ethynyl}benzoic acid], the IC50 was 100 to 1000 nM. With `O=C(O)c1ccc(C#Cc2ccccc2NS(=O)(=O)c2cccc3ccccc23)cn1` [Compound 70, 5-{2-[2-(naphthalene-1-sulfonamido)phenyl]ethynyl}pyridine-2-carboxylic acid] the figure was 100 to 1000 nM; with `COc1cc(C#Cc2ccccc2NS(=O)(=O)c2cccc3ccccc23)cnc1C(=O)O` [Compound 71, 3-methoxy-5-{2-[2-(naphthalene-1-sulfonamido)phenyl]ethynyl}pyridine-2-carboxylic acid], 1000 to 100000 nM; with `COc1ccc(S(=O)(=O)Nc2ccccc2C#Cc2ccc(C(=O)O)nc2)c(C)c1` [Compound 72, 5-{2-[2-(4-methoxy-2-methylbenzenesulfonamido)phenyl]-ethynyl}pyridine-2-carboxylic acid], 1000 to 100000 nM. With `O=C(O)c1ccc(C#Cc2ccccc2NS(=O)(=O)c2cc3ccccc3o2)cc1` [Compound 73, 4-{2-[2-(1-benzofuran-2-sulfonamido)phenyl]ethynyl}benzoic acid] the figure was 100 to 1000 nM. Under `Cc1cc(C#Cc2ccccc2NS(=O)(=O)c2cccc3ccccc23)cnc1C(=O)O` [Compound 74, 3-methyl-5-{2-[2-(naphthalene-1-sulfonamido)phenyl]ethynyl}pyridine-2-carboxylic acid] stands 100 to 1000 nM; under `Cc1ccc(S(=O)(=O)Nc2ccccc2C#Cc2ccc(C(=O)O)cc2)c2ccccc12` [Compound 75, 4-{2-[2-(4-methylnaphthalene-1-sulfonamido)phenyl]ethynyl}benzoic acid], 100 to 1000 nM. Regarding `O=C(O)c1ccc(C#Cc2ccccc2NS(=O)(=O)C2CS(=O)(=O)c3ccccc32)cc1` (stereo not shown) [Compound 76, 4-{2-[2-(1,1-dioxo-2,3-dihydro-1lambda6-benzo[b]thiophene-3-sulfonamido)phenyl]ethynyl}benzoic acid], the IC50 lay within 1000 to 100000 nM. With `O=C(O)c1ccc(C#Cc2ccccc2NS(=O)(=O)C2=Cc3ccccc3CC2)cc1` [Compound 78, 4-{2-[2-(3,4-dihydronaphthalene-2-sulfonamido)phenyl]ethynyl}benzoic acid] the figure was 100 to 1000 nM. With `Cc1cc(C#Cc2ccccc2NS(=O)(=O)c2cccc3ccccc23)ccc1C(=O)O` [Compound 80, 2-methyl-4-{2-[2-(naphthalene-1-sulfonamido)phenyl]ethynyl}benzoic acid] the figure was 100 to 1000 nM. `O=C(O)c1ccc(C#Cc2ccccc2NS(=O)(=O)C2=Cc3ccccc3CC2)cn1` [Compound 81, 5-{2-[2-(3,4-dihydronaphthalene-2-sulfonamido)phenyl]ethynyl}pyridine-2-carboxylic acid] came in with a concentration for half-maximal inhibition (IC50) of 100 to 1000 nM. With `COc1cnc2cc(S(=O)(=O)Nc3ccccc3C#Cc3ccc(C(=O)O)cc3)ccc2n1` [Compound 82, 4-{2-[2-(2-methoxyquinoxaline-6-sulfonamido)phenyl]ethynyl}benzoic acid] the figure was 1000 to 100000 nM; with `O=C(O)c1ccc(C#Cc2ccccc2NS(=O)(=O)c2csc3ccccc23)cc1` [Compound 83], 100 to 1000 nM. With `O=C(O)c1ccc(C#Cc2ccccc2NS(=O)(=O)c2cccc3ccccc23)c2ccccc12` [Compound 84, 4-{2-[2-(naphthalene-1-sulfonamido)phenyl]ethynyl}-naphthalene-1-carboxylic acid] the figure was 1000 to 100000 nM; with `Cc1ccccc1-c1cccc(S(=O)(=O)Nc2ccccc2C#Cc2ccc(C(=O)O)cc2)c1` [Compound 86, 4-[2-(2-{2′-methyl-[1,1′-biphenyl]-3-sulfonamido}phenyl)ethynyl]benzoic acid], 1000 to 100000 nM; with `O=C(O)c1ccc(C#Cc2ccccc2NS(=O)(=O)c2ccc3c(c2)Cc2ccccc2-3)cc1` [Compound 87, 4-{2-[2-(9H-fluorene-2-sulfonamido)phenyl]ethynyl}benzoic acid], 100 to 1000 nM. With `Cc1cc(C(=O)O)ncc1C#Cc1ccccc1NS(=O)(=O)c1cccc2ccccc12` [Compound 88, 4-methyl-5-{2-[2-(naphthalene-1-sulfonamido)phenyl]ethynyl}pyridine-2-carboxylic acid] the figure was 100 to 1000 nM; with `O=C(O)c1ccc(C#Cc2ccccc2NS(=O)(=O)c2cc3ccccc3o2)cn1` [Compound 89, 5-{2-[2-(1-benzofuran-2-sulfonamido)phenyl]ethynyl}pyridine-2-carboxylic acid], 1000 to 100000 nM; with `O=C(O)c1ccc(C#Cc2ccccc2NS(=O)(=O)N2CCc3ccccc3C2)cc1` [Compound 90, 4-(2-{2-[(1,2,3,4-tetrahydroisoquinoline-2-sulfonyl)amino]phenyl}ethynyl)benzoic acid], 1000 to 100000 nM. For `COc1cnc2cc(S(=O)(=O)Nc3ccccc3C#Cc3ccc(C(=O)O)nc3)ccc2n1` [Compound 91, 5-{2-[2-(2-methoxyquinoxaline-6-sulfonamido)phenyl]ethynyl}pyridine-2-carboxylic acid], the IC50 was 1000 to 100000 nM.

Values taken from patent publication US12351570B2 (MERCK PATENT GMBH, priority 2018, dated 2025).
